Data from publication PMC8338929, “Acetylation turns leucine into a drug by membrane transporter switching” (Scientific Reports, 2021).

Target: T1, Human OAT3 (SLC22A8) (Homo sapiens, UniProt Q8TCC7)
T1 construct: host or cells: HEK-293
T1 sequence (Q8TCC7 1-542): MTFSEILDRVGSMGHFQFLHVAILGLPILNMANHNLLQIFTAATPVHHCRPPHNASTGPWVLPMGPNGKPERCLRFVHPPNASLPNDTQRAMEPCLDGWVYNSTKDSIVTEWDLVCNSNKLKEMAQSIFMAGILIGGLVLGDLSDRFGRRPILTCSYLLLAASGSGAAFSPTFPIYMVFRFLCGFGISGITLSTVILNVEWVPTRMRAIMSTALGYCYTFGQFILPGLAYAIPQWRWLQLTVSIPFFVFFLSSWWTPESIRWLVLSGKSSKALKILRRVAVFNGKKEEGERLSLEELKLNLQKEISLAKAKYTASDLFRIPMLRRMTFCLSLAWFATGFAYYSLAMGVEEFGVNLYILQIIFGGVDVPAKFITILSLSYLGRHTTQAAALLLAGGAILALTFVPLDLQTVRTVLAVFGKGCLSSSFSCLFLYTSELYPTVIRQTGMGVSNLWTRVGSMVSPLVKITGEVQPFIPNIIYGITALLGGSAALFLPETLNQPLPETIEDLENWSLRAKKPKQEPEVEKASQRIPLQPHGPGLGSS
Assay: OAT3-mediated cellular uptake in overexpressing HEK-293 cells
Assay type: cell-based
Procedure: Cells were grown in DMEM (Gibco 4196, high glucose, without sodium pyruvate) supplemented with MEM non-essential amino acids and 10% fetal bovine serum. Cells were re-fed with fresh medium after attachment (4–6 h post-seeding). Cell were plated at a density of 4 × 10^5/well in 24-well plates coated with poly-D-lysine. Transporter assays were conducted in 400 µL of HBSS supplemented with 10 mM Hepes, pH 7.4
The known probe substrates used as positive controls were 3 μM chlorothiazide for OAT1, 2 μM estrone-3-sulfate for OAT3, 10 µM [^3H]gabapentin for LAT1, 50 µM [^3H]Gly-Sar for PepT1, 500 µM thiophene-2-glyoxylic acid for MCT1. The known inhibitors used as controls for each transporter were 100 μM diclofenac for OAT1 and OAT3, 10 µM JPH203 for LAT1 and 200 µM losartan for PepT1. All incubations were in triplicate and contained 1% (OAT1 and OAT3) or 0.5% DMSO (LAT, PepT1 and MCT1). The duration of uptake was 5 min for OAT1 and OAT3, 3 min for LAT1 and PepT1 and 1 min for MCT1. Assays were performed at 37 °C with no shaking, except MCT1 at room temperature. To determine uptake due to the overexpressed transporter per se, uptake was taken as the difference between accumulation between transfected and nontransfected cells in parallel experiments at the same concentration and time. To terminate uptake the plate was placed on ice and cells washed twice with ice-cold transport buffer. […]

Vmax OAT3 uptake (Michaelis-Menten fit): 138
substrate of OAT3 (uptake) (pH 7.4, 5 min): substrate
Structure (SMILES): CC(=O)N[C@@H](CC(C)C)C(=O)O [N-acetyl-L-leucine]
